# Results published in ChEMBL document CHEMBL1127886, “Inhibition of the RTEM-1 -lactamase by boronic acids” (Bioorg Med Chem Lett, 1994).
# Target: Beta-lactamase TEM (Escherichia coli, UniProt P62593)
# Assay: Inhibitory constant was determined against class A RTEM-1 Beta-lactamase from Escherichia coli
# Beta-lactamase TEM, sequence (P62593 whole entry): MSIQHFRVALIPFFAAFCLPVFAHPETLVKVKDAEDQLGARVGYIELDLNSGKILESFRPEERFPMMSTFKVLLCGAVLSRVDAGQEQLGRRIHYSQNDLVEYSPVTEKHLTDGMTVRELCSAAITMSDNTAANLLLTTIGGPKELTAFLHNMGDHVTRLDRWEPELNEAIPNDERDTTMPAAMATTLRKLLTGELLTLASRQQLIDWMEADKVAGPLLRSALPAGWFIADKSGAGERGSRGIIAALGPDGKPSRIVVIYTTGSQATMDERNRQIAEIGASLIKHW
row,SMILES,Ki [µM]
1,OB(O)c1cccc(-c2ccccc2)c1,13.9
2,OB(O)CCc1cccc2ccccc12,101
3,OB(O)CCc1ccc(C(F)(F)F)cc1,43
4,Cc1ccc(CCB(O)O)cc1,58
5,OB(O)c1ccc(Cl)cc1Cl,94
6,OB(O)c1ccc(Cl)c(Cl)c1,143
7,Nc1cccc(B(O)O)c1,3700
8,OB(O)c1ccc(Br)cc1,28
9,O=C(O)c1ccc(CCB(O)O)cc1,49
10,COc1ccc(B(O)O)cc1,670
11,OB(O)CCc1ccc(Cl)cc1,41
12,Cc1ccccc1CCB(O)O,141
13,OB(O)CCc1ccc2ccccc2c1,44
14,OB(O)CCC1CCCCC1,276
15,OB(O)c1cccc(Br)c1,83
16,OB(O)c1ccc(F)c(Cl)c1,152
17,OB(O)CCc1ccccc1Cl,106
18,Cc1cccc(CCB(O)O)c1,83
19,COc1cccc(CCB(O)O)c1,50
20,OB(O)c1ccccc1 [PHENYLBORONIC ACID],491
